Entries after “also recorded” stand apart in the source; their conditions may differ. Ends that are not written are not given here.
What was measured:
CNV [1] = conditions: in vivo; cited from earlier work
[2] = test system: corneal neovascularization; assay: Alkali burn (sodium hydroxide caustication) neovascularization model; assay type: in vivo, C57Bl/6 mice; conditions: for corneal perforation / corneal transparency / incidence of symblepharon and ankyloblepharon / lid anatomy: topical treatment of ocular burns, Examples 4-6
Description: Prior to pellet implantation or caustication, animals were anesthetized by intraperitoneal injection of ketamine (120 mg/kg) and xylazine (20 mg/kg) before any surgery.
In fact, the Alkali burn model is considered an inflammation-driven model of neovascularisation, whereby a reduction in inflammatory cell influx is associated with clinical improvement.
Mice were anesthetized by intraperitoneal injection of ketamine (120 mg/kg) and xylazine (20 mg/kg) before any surgery. A 2-mm disc of filter paper saturated with 1 N NaOH was placed onto the right cornea of each mouse for 40 seconds, followed by rinsing extensively with phosphate-buffered saline (PBS) for 2 minutes.
(§1) After taking photographs under the slit lamp, five mice per group were sacrificed 7 days after b-FGF micropellet implantation or caustication, and freshly enucleated eyes were prepared into corneal flat mounts. Immunohistochemical staining was performed with FITC-conjugated CD31/PECAM-1 (rat-anti-mouse antibody; 1:100; Santa Cruz Biotechnology, Santa Cruz, Calif.). Images were taken at 40×, 400× and 600× magnification. To quantify the blood vessels, corneal whole-mounts were covered with mounting medium (Vector, Burlingame, Calif.) and examined by an epifluorescent microscope. For toxicity studies, mice were examined at the slit lamp daily. Animals were sacrificed seven days later and eye bulbs were removed, fixed in 4% paraformaldehyde, cross-sectioned and stained with standard hematoxylin-eosin. At least three to five different corneas were examined; representative data are presented.
(§2) Both slit-lamp and fluorescence microscopy pictures were qualitatively compared for the amount of corneal neovascularization. Gross anatomical alterations such as disruption of epithelial layer, inflammatory cell infiltration, or endothelial cell loss were searched in hematoxylin-eosin cross sections.
Male 6- to 8-week-old C57Bl/6 mice were treated to induce neovascularization using sodium hydroxide caustication (see Experimental Methods)
5 mice per group were used. After taking photographs at the slit lamp, mice were sacrificed. Immunohistochemical staining was performed with FITC-conjugated CD31/PECAM-1 to reveal corneal neovessels.
Lanepitant (WO9907681) was dissolved in PBS. It was administered topically to the eye with the following dose regimen after alkali burn induced neovascularization of the cornea: • 0.4 mg/ml, 6 times a day for 4 days, starting on the day of the tissue injury (“Day 0” to “Day 3”). • 1.6 mg/ml, 6 times a day for 4 days, starting on the day of the tissue injury (“Day 0” to “Day 3”). • 6.4 mg/ml, 6 times a day for 4 days, starting on the day of the tissue injury (“Day 0” to “Day 3”). • PBS Control, 6 times a day for 4 days, starting on the day of the tissue injury (“Day 0” to “Day 3”).
Three mice (for a total of 6 eyes) were treated in each experimental group.
On Day 4, After taking photographs at the slit lamp, mice were sacrificed. Immunohistochemical staining was performed with FITC-conjugated CD31/PECAM-1 to reveal corneal neovessels (FIG. 4A). Following alkali burn, neovessels are expected to grow from the periphery towards the center of the cornea. The extent of the neovascularization is then evaluated. Briefly, corneas were excised, fixed and stained with FITC-conjugated CD31/PECAM-1 to reveal corneal neovessels. […] The neovascular area was then calculated by measuring the Neovascular Area Index (NV Index). This was obtained by calculating the ratio of the neovascular area—obtained by joining together the inner tip of the neovessels—and the total surface of the cornea (i.e. the total area of the cornea).
Befetupitant (WO020008232) was dissolved in DMSO (Dimethyl SulfOxyde).

[3] = test system: corneal neovascularization; assay: as above; assay type: in vivo, C57Bl/6 mice
[4] = test system: corneal neovascularization; assay: b-FGF pellet implantation angiogenesis model (mouse corneal micropocket); assay type: in vivo, C57Bl/6 mice; conditions: 1 mg/ml topical, 4 times per day for 1 week
Description: Male 6- to 8-week-old C57Bl/6 mice (Taconic Farms, Germantown, N.Y.) were used in experiments for Examples 1 to 3. Male 6- to 8-week-old C57Bl/6 mice (Charles River Lab, Calco, Milan, Italy) were used in experiments for Examples 4-6. Prior to pellet implantation or caustication, animals were anesthetized by intraperitoneal injection of ketamine (120 mg/kg) and xylazine (20 mg/kg) before any surgery.
b-FGF Pellet Implantation Angiogenesis Model
This model was employed to assess the effect of pharmaceutically active substances on the angiogenesis component of CNV.
Sustained release b-FGF micropellets (40 ng/pellet) were prepared as described in Azar D T, Am Ophthalmol Soc 2006; 104:264-302.
Briefly, the pellets were implanted through half thickness linear incisions at the center of cornea using a disposable 30 degrees microknife (F.S.T., Foster City, Calif., USA). Lamellar pocket incisions were then made parallel to the corneal plane using a Von Graefe knife (F.S.T., Foster City, Calif., USA) and advanced to the temporal limbus at lateral canthal area. The pellets were positioned into the pocket 1.0 mm apart from the limbal vascular arcade in temporal side, and tetracycline ophthalmic ointment was applied to the eye after pellet implantation to prevent post surgical infections.
as §1
as §2, with “sections. […]” for “sections.”
Following b-FGF pellet implantation, neovessels are expected to grow from the limbal vessels (i.e. from the periphery of the cornea), towards the pellet, which is placed in the avascular cornea. The extent of neovascularisation is then evaluated.

healthy cornea = assay: Toxicity following topical application in healthy eyes; assay type: in vivo, C57Bl/6 mice
Description: as §1, §2
Fosaprepitant toxicity was tested on the healthy cornea by administering to 3 healthy C57Bl/6 mice fosaprepitant (purchased from Universal Drug Store, Canada and diluted as per technical sheet instructions with 0.9% NaCl solution to reach a final concentration of 1 mg/ml) at the concentration of 1 mg/ml in the conjunctival sac 4 times per day for 1 week. In vivo corneal biomicroscopy imaging and hematoxylin eosin ocular cross sections were checked as markers for toxicity.

[5] = test system: growth of capillary vessels; conditions: slow release pellets in avascular cornea of rabbits; cited from earlier work
endothelial cells = conditions: in vitro; cited from earlier work
CNV [6] = conditions: humans, topical administration; cited from earlier work
[7] = 1 mg/ml topical, 4 times per day for 1 week, versus placebo
[8] = increasing dose 0.4, 1.6, 6.4 mg/ml topical, 6 times a day for 4 days, Day 4

## CC(=O)OCC(=O)[C@@]1(O)CC[C@H]2[C@@H]3CCC4=CC(=O)CC[C@]4(C)C3=CC[C@@]21C [anecortave acetate]
CNV [1]
  efficacy in animal models of CNV: effective

## Cc1ccccc1-c1cc(N2CCOCC2)ncc1N(C)C(=O)C(C)(C)c1cc(C(F)(F)F)cc(C(F)(F)F)c1 [befetupitant]
[2]; 0.4 mg/ml topical, 3 times a day for 9 days, compared to vehicle (DMSO)
  Corneal Neovascular Index: statistically significant reduction
[2]
  corneal perforation: reduced
  corneal transparency: increased
  incidence of symblepharon and ankyloblepharon: reduced
  lid anatomy: appeared better preserved
[3]; 1.6 mg/ml topical, 3 times a day for 9 days, compared to vehicle (DMSO)
  Corneal Neovascular Index: statistically significant reduction
[3]; increasing doses 0.4, 1.6 mg/ml in DMSO, topical, 3 times a day for 9 days, day 9
  corneal neovessels (CD31/PECAM-1): reduced; also recorded: reduces corneal neovascularization

## C[C@@H](O[C@H]1OCCN(Cc2nc(O)n(P(=O)(O)O)n2)[C@H]1c1ccc(F)cc1)c1cc(C(F)(F)F)cc(C(F)(F)F)c1 [fosaprepitant, [3-{[(2R,3S)-2-[(1R)-1-[3,5-bis(trifluoromethyl)phenyl]ethoxy]-3-(4-fluorophenyl)morpholin-4-yl]methyl}-5-oxo-2H-1,2,4-triazol-1-yl]phosphonic acid]
[4]; slit lamp, 7 days after implantation
  length of the vessels: appeared reduced
[4]; versus placebo
  area of normally avascular cornea invaded by neovessels: smaller
  density of vascular ramifications (number of vascular branches per surface unit): reduced
[4]; conjunctival sac, 7 days after implantation, versus placebo (PBS)
  corneal neovascularization (slit lamp, CD31/PECAM-1 whole mounts): less neovascularization; also recorded: reduces corneal neovascularization
[2]; [7]
  area of normally avascular cornea invaded by neovessels: smaller
Healthy cornea; 1 mg/ml topical, 4 times per day, up to 7 days, healthy corneas
  alteration of corneal epithelium, stroma or endothelium at slit lamp observation: No alteration
Healthy cornea; 1 mg/ml topical, 4 times per day, 7 days
  hematoxylin-eosin staining of eyeball cross-sections (epithelium, stroma, endothelium): no anatomical alteration was detected
Healthy cornea; topical application (FIG. 3)
  toxicity to the cornea: not toxic
[3]; 1 mg/ml topical, 4 times per day for 1 week, 7 days after caustication, versus placebo (PBS)
  corneal neovascularization (slit lamp, epifluorescent microscopy): remarkably reduced; also recorded: reduces corneal neovascularization
[3]; [7]
  density of vascular ramifications (number of vascular branches per surface unit): reduced
[3]; 1 mg/ml topical, 4 times per day for 1 week, versus placebo-treated corneas
  corneal transparency: much improved

## COc1ccccc1CN(C[C@@H](Cc1c[nH]c2ccccc12)NC(=O)CN1CCC(N2CCCCC2)CC1)C(C)=O [lanepitant]
[2]; 6.4 mg/ml topical, 6 times a day for 4 days, compared to vehicle
  Neovascular Area Index (NV Index): statistically significant reduction
[2]; 0.4, 1.6, 6.4 mg/ml topical, 6 times a day for 4 days, Day 4, versus vehicle
  anatomy of the eyelids: appeared better preserved
[2]; increasing dose 0.4, 1.6, 6.4 mg/ml topical, 6 times a day for 4 days from day of injury, Day 4, versus vehicle (PBS)
  corneal transparence: increased corneal transparence
[2]; [8]
  Neovascular Area Index (NV Index): progressively reduced
  corneal neovessels (CD31/PECAM-1): progressively reduced; also recorded: reduces corneal neovascularization
[2]; pre-treatment 1.6 mg/ml versus 1.6 mg/ml started on day of injury
  effect on neovascularization compared to the same dose administered after the tissue injury: increased effect
[2]
  corneal perforation: reduced
  corneal transparency: increased
  incidence of symblepharon and ankyloblepharon: reduced
  lid anatomy: appeared better preserved
[3]; pre-treatment: 1.6 mg/ml topical, 6 times a day from before the injury through Day 3, day 4
  Cornea Neovascular Index: statistically significant reduction
[3]; pre-treatment: 1.6 mg/ml topical, 6 times a day from before the injury through Day 3, day 4, versus vehicle
  corneal neovascularization: appeared reduced; also recorded: reduces corneal neovascularization

## Substance P: C-amidated decapeptide of the tachykinin family; principal receptor NK-1 (RPKPQQFFGLM-NH2; UniProt P20366 58-68, looked up)
[5]
  vessel growth in the cornea: induced a marked neovascularization
Endothelial cells
  proliferation of endothelial cells: increased proliferation

## bevacizumab: anti-VEGF monoclonal antibody
CNV [6]
  inhibiting CNV: some effect

From US9782397B2, “Treatment of corneal neovascularization” (IRBM SCIENCE PARK S.P.A., priority 2011, dated 2017)
